Experimental data from patent US7932276B2, “Agent for curing chronic obstructive pulmonary disease” (Otsuka Pharmaceutical Co., Ltd., priority 2001, dated 2011).

System: guinea pigs exposed to smoke of cigarette
Experiment: Cigarette smoke exposure guinea pig COPD model, respiratory functions by Double-chamber Plethymograph method
Type: in vivo, Hartley strain guinea pigs
Conditions: 10 mg/kg orally once a day; for Changes in Peak expiration flow / Changes in Specific airway resistance value: change vs value before exposure to cigarette smoke
Description: In accordance with the method of Jun-ichi Fuchikami, et al. (Japanese Journal of Pharmacology, 2000, (82), p. 247), the following pharmacological test was conducted.
Hartley strain guinea pigs (5 weeks age, body weight: 300 to 379.5 g) were exposed to smoke of cigarette (trade name: Hi-Light, manufactured by Japan Tobacco Inc.) for 1 hour/day, 5 days a week, during 4 weeks, by using a flow-past type nose-only inhalation chamber, manufactured by Muenster Co. Control group as a normal group was exposed to the atmospheric air instead of cigarette smoke.
Compound A was suspended in 0.5% tragacanth gum aqueous solution, and this suspension was orally administered compulsorily to the guinea pigs (compound A administered group), in the amount of 10 mg/kg once a day, 1 hour before the exposure to cigarette smoke in the day of exposure, and in the morning in the day of non-exposure, respectively.
To the guinea pigs in the vehicle administered group, a 0.5% tragacanth gum aqueous solution without containing Compound A was orally administered instead of the suspension of compound A.
While, to the guinea pigs in the control group, neither the 0.5% tragacanth aqueous solution nor the compound A suspension were administered.
Before exposure and during the period of 4 weeks of exposure to the smoke of cigarette, the respiratory functions (specific airway resistance and peak expiration flow) of the guinea pigs were non-invasively assessed once a week under conscious condition, using Double-chamber Plethymograph method with a respiratory function measuring equipment (Pulmos-I, manufactured by M.I.P.S. Co.).
The respiratory functions (i.e., values of specific airway resistance and peak expiration flow) were obtained as an average of 100 times measured values of the functions, and were shown as the changes of percentage to the respective value of respiratory function measured before exposure to cigarette smoke.

**Q.** With `CCOc1ccc(-c2nc(-c3cccc(C(=O)O)n3)cs2)cc1OCC` [Compound A, 6-[2-(3,4-diethoxyphenyl)thiazol-4-yl]pyridine-2-carboxylic acid] as the compound, how does the “Effect on specific airway resistance and peak expiration flow as compared with vehicle administered group” value (4 weeks cigarette smoke exposure) read?
**A.** The value was “excellent improving effects”.

**Q.** What about the “Changes in Peak expiration flow” value (1 Week after exposure) of the same compound?
**A.** The value was 9.67%.

**Q.** What about the “Changes in Specific airway resistance value” (1 Week after exposure) of the same compound?
**A.** Its value is 12.75%.

**Q.** And the “Changes in Peak expiration flow” value (2 Week after exposure)?
**A.** Its value is 15.67%.

**Q.** What about the “Changes in Specific airway resistance value” (2 Week after exposure) of the same compound?
**A.** Its value is 41.82%.

**Q.** What about the “Changes in Peak expiration flow” value (3 Week after exposure) of the same compound?
**A.** The value was 14.08%.

**Q.** And the “Changes in Specific airway resistance value” (3 Week after exposure)?
**A.** Its value is 61.08%.

**Q.** And the “Changes in Peak expiration flow” value (4 Week after exposure)?
**A.** Its value is 37.06%.

**Q.** And the “Changes in Specific airway resistance value” (4 Week after exposure)?
**A.** The value was 51.26%.
